The test concerns oral mucositis in a hamster model following irradiation. Description: Hamster model of radiation-induced oral mucositis (mucositis score). It is filed as in vivo, Golden Syrian hamsters.
Setting [1] is: solution containing 3.5 mg/ml, 0.5 ml into left cheek pouch three times per day, Day 0 to Day 19, single radiation dose 35-38 Gy.
Where [2] appears, read: solution containing 17.5 mg/ml, 0.5 ml into left cheek pouch three times per day, Day 0 to Day 19, single radiation dose 35-38 Gy.

We go through 10 compounds from patent publication US6565895B2, “Bismuth compounds for the treatment and prevention of mucositis” (GelTex Pharmaceuticals, Inc., priority 2000, dated 2003).

Source text: Briefly, male Golden Syrian hamsters (Charles River Laboratories), aged 5 to 6 weeks, with body weights of approximately 90 g at project commencement, were used. Animals were individually numbered using an ear punch and housed in small groups of approximately 6 animals per cage. Animals were acclimatized for at least one week prior to project commencement. During this period, the animals were observed daily in order to reject animals that presented in poor condition. Animals were fed with a standard hamster chow and water ad libitum.
Mucositis was induced using an acute radiation protocol. A single dose of radiation (35-38 Gy/dose) was administered to all animals on Day 0. Radiation was generated with a 250 kilovolt potential (15 mA) source at a focal distance of 50 cm, hardened with a 0.35 mm Cu filtration system. […] Prior to irradiation, animals were anesthetized with an intraperitoneal injection of sodium pentobarbital (80 mg/kg). The left buccal pouch was everted, fixed and isolated using a lead shield.
All animals were dosed with test material three times per day. A needleless tuberculin syringe containing 0.5 ml of the test compound was inserted into the left cheek pouch and the drug deposited into the pouch. Dosing began on Day 0 and continued until Day 19.
The mucositis score, weight change and survival were measured as outcomes in this study. For the evaluation of mucositis, the animals were anesthetized with inhalation anesthetics, and the left pouch everted. Mucositis was scored visually by comparison to a validated photographic scale, ranging from 0 for normal to 5 for severe ulceration (clinical scoring). In descriptive terms, this scale is defined as follows:
A score of 1-2 is considered to represent a mild stage of the disease, whereas a score of 3-5 is considered to indicate moderate to severe mucositis. Following visual scoring, a photograph was taken of each animal's mucosa using a standardized technique. At the conclusion of the experiment, all films were developed and the photographs randomly numbered. At least two independent trained observers graded the photographs in blinded fashion using the above-described scale (blinded scoring).

`O=C([O-])c1ccccc1.O=C([O-])c1ccccc1.O=C([O-])c1ccccc1.[Bi+3]` [bismuth benzoate, Bismuth Benzoate]: the “improvement in mucositis scores (time with score of three or higher)” value (shortened to “improvement in mucositis scores”) under setting [1] is on record as “showed improvement in their mucositis scores”. Regarding `O=C([O-])CC(O)(CC(=O)[O-])C(=O)[O-].[Bi+3]` [bismuth citrate], under setting [1], the “improvement in mucositis scores” value was “showed improvement in their mucositis scores”. Regarding `N[C@@H](CCC(=O)N[C@@H](CS)C(=O)NCC(=O)O)C(=O)O.[Bi]` [bismuth glutathione, Bismuth Glutathione], where the note is “hamster, in vivo”, the “improvement in mucositis scores” value was “showed improvement in their mucositis scores”. With `O=C([O-])[C@H]([O-])[C@@H]([O-])C(=O)[O-].[Bi+3].[K+]` [bismuth potassium tartrate], the “improvement in mucositis scores” value under setting [2] is on record as “did not show a statistically significant improvement”. In the case of `O=C([O-])c1ccccc1[O-].[Bi+3].[OH-]` [bismuth salicylate basic], the “improvement in mucositis scores” value under setting [1] is on record as “showed improvement in their mucositis scores”.

For the compound `O=C([O-])[O-].[Bi+3].[Bi+3].[O-2].[O-2]` [bismuth subcarbonate], the “improvement in mucositis scores” value under setting [2] is “did not show a statistically significant improvement”. `O=[N+]([O-])[O-].O=[N+]([O-])[O-].O=[N+]([O-])[O-].O=[N+]([O-])[O-].[Bi+3].[Bi+3].[Bi+3].[Bi+3].[Bi+3].[O-2].[OH-].[OH-].[OH-].[OH-].[OH-].[OH-].[OH-].[OH-].[OH-]` [bismuth subnitrate]: the “improvement in mucositis scores” value under setting [2] is recorded as “did not show a statistically significant improvement”. As for Bismuth Ascorbate, under “solution containing 1.75 mg/ml, 0.5 ml into left cheek pouch three times per day, Day 0 to Day 19, single radiation dose 35-38 Gy”, the “improvement in mucositis scores” value is “showed improvement in their mucositis scores”. As for bismuth (III) oxide, under setting [2], the “improvement in mucositis scores” value is given as “did not show a statistically significant improvement”. On the same count and under the same terms, then bismuth subgallate, with “did not show a statistically significant improvement”.
